Read-outs that look alike come from different tables or passages of the source.
What was measured:
IRAK1 = molecular target: T1, IRAK1 (Homo sapiens, UniProt P51617); experiment: RBC HotSpot Kinase Assay, IRAK1; format: biochemical; details: isolated kinase enzyme, 33P-ATP, P81 filter-binding
T1 construct: purchased Reaction Biology (RBC HotSpot)
In short: (§1)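 Reactions ran in 20 mM Hepes (pH 7.5) containing 10 mM MgCl2, 1 mM EGTA, 0.1 mM Na3VO4, 2 mM DTT, 0.02 mg/ml BSA, 0.01% Brij35 and 1% DMSO, plus required cofactors. Functional activity readout on the expressible enzyme form, sometimes C-terminally truncated or lacking receptor regulatory regions.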

MOLM14 D835Y cells = experiment: MOLM14 D835Y cell viability assay (Cell Titer Glo); format: cell-based; details: cell viability, Cell Titer Glo, 48 hours, read-out: MOLM14 D835Y IC50
In short: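 Luminescent ATP read-out (CellTiter-Glo, 15 min room temperature) taken 48 h after compound addition. Cells were MOLM14 carrying FLT3 D835Y or F691L mutations, plated at 1000 cells per well.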

IRAK4 = molecular target: T2, IRAK4 (Homo sapiens, UniProt Q9NWZ3); experiment: RBC HotSpot Kinase Assay, IRAK4; format: biochemical; set-up: purchased Reaction Biology (RBC HotSpot); details: isolated kinase enzyme, 33P-ATP, P81 filter-binding
T2 sequence (Q9NWZ3 1-460): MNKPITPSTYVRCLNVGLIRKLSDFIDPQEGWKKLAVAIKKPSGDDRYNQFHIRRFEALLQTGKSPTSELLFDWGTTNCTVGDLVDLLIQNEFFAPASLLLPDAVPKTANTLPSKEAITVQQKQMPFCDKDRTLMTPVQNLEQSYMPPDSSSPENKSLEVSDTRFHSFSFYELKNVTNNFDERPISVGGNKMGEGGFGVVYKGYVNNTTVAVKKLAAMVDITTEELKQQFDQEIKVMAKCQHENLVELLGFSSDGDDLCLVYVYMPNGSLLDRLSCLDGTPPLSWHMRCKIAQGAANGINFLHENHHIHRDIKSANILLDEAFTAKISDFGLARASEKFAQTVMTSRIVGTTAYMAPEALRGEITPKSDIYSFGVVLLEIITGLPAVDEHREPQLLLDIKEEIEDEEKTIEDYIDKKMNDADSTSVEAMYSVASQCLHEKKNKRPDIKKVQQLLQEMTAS
In short: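 Radiometric filter-binding activity assay with isolated recombinant kinase (construct may be truncated or catalytic domain only) in 20 mM Hepes pH 7.5, 10 mM MgCl2, 1 mM EGTA, 2 mM DTT, 1% DMSO. Compound preincubated 20 min with kinase/substrate; reaction started with 33P-ATP, run 2 h at room temperature.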

FLT3 = molecular target: T3, FLT3 (Homo sapiens, UniProt P36888); experiment: RBC HotSpot Kinase Assay, FLT3; format: biochemical; set-up: purchased Reaction Biology (RBC HotSpot); details: isolated kinase enzyme, 33P-ATP, P81 filter-binding
T3 sequence (P36888 27-993): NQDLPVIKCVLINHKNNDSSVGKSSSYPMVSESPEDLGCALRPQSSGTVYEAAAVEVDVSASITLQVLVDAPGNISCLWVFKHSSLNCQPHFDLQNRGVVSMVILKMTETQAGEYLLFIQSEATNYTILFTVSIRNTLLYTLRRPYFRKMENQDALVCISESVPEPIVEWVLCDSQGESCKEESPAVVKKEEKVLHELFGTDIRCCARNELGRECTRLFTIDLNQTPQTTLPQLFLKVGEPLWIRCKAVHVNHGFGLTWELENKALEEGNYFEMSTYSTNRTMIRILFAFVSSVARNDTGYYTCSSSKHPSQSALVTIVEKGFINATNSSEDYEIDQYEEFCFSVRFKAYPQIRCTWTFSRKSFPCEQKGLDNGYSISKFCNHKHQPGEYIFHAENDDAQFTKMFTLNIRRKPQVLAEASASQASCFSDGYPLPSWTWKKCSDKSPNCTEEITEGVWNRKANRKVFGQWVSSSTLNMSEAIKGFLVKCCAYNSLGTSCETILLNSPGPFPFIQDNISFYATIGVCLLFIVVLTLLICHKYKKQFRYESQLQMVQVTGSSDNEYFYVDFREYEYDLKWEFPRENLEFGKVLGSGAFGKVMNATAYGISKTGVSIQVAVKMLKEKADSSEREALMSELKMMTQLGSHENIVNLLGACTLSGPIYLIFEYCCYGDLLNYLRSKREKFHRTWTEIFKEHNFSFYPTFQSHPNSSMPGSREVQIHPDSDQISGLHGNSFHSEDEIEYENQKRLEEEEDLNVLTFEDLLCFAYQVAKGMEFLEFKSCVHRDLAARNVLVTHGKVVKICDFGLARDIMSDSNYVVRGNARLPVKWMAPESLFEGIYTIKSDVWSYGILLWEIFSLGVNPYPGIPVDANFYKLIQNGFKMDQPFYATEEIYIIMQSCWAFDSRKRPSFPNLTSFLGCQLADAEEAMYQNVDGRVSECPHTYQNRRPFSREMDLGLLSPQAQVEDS
In short: as §1

THP1 cells (FLT3 WT) = experiment: Combination drug screening with venetoclax in THP1 cells (Cell Titre Glo, 10 × 10); format: cell-based; details: for Excess HSA (sum excess HSA score, combination with venetoclax): 10 × 10 dataset, Cell Titre Glo at 48 hours, optimal of 4 dose combinations, negative = synergy; for Concentration needed to decrease the 312.5 nM Venetoclax response to <20%: Cell Titer Glo at 48 hours
Description: These assays were performed using the Cell Titre Glo assay, measured at 48 hours.
A smaller concentration indicates higher potency to synergize with Venetoclax.

T1 sequence (P51617 whole entry): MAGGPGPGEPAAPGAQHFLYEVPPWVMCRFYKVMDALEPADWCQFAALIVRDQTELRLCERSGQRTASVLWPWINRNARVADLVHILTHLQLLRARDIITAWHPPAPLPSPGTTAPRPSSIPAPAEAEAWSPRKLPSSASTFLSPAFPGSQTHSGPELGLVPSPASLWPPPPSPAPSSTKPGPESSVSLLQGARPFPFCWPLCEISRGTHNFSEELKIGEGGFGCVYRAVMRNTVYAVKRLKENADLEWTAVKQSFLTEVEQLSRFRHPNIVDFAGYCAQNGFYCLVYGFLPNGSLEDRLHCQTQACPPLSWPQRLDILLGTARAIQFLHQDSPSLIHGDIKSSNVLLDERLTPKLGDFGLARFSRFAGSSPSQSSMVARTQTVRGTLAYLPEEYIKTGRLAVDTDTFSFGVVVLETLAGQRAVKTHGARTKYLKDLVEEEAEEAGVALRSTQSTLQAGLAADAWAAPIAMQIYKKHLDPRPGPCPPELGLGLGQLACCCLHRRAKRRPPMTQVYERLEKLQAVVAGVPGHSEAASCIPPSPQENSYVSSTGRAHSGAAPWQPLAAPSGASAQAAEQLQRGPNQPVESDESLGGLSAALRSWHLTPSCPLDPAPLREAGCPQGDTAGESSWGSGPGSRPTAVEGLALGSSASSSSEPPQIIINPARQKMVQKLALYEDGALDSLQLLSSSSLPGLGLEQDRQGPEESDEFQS

| Structure (SMILES) | IC50 (IRAK1) [nM] | IC50 (MOLM14 D835Y cells) [nM] | IC50 (IRAK4) [nM] | IC50 (FLT3) [nM] | IC50 (MOLM14 D835Y cells; Homo sapiens, MOLM-14, 48 h) [nM] | Excess HSA (sum excess HSA score, combination with venetoclax) (THP1 cells (FLT3 WT)) | Concentration needed to decrease the 312.5 nM Venetoclax response to <20% (THP1 cells (FLT3 WT)) [µM] |
| --- | --- | --- | --- | --- | --- | --- | --- |
| CC(O)(c1ccc2ncc(-c3ccnc(N[C@@H]4CCCNC4)n3)n2c1)C(F)(F)F (single isomer, unassigned) [Compound 22a] | 19 | 36 | 3 | 0.6 |  |  |  |
| CC(O)(c1ccc2ncc(-c3ccnc(N[C@@H]4CCCNC4)n3)n2c1)C(F)(F)F (single isomer, unassigned) [Compound 23a] | 3 | 16 | 0.8 | < 0.5 |  |  |  |
| CC(O)(c1ccc2ncc(-c3ccnc(N[C@H]4CNCC[C@@H]4F)n3)n2c1)C(F)(F)F (single isomer, unassigned) [Compound 25a] | 17 |  | 2 | < 0.5 | 36 | −1386 | 1.25 |
| CC(O)(c1ccc2ncc(-c3cncc(N[C@@H]4CCCNC4)n3)n2c1)C(F)(F)F (single isomer, unassigned) [Compound 28a] | 33 |  | 3 | 2 | 204 |  |  |
| CC(O)(c1ccc2ncc(-c3cncc(N[C@H]4CNCC[C@@H]4F)n3)n2c1)C(F)(F)F (single isomer, unassigned) [Compound 31a] | 17 | 162 | 2 | 1 |  |  |  |
| COc1cc2ncc(-c3nc(N[C@H]4CNCC[C@@H]4F)ncc3F)n2nc1C1CC1 [Compound 1a, 4-(6-cyclopropyl-7-methoxyimidazo[1,2-b]pyridazin-3-yl)-5-fluoro-N-((3S,4S)-4-fluoropiperidin-3-yl)pyrimidin-2-amine] | 1 |  | 0.9 | 0.5 | 1 | −696.6 | 2.5 |
| FC(F)COc1cc2ncc(-c3ccnc(N[C@H]4CNCC[C@@H]4F)n3)n2nc1C1CC1 [Compound 4a, 4-(6-cyclopropyl-7-(2,2-difluoroethoxy)imidazo[1,2-b]pyridazin-3-yl)-N-((3 S,4S)-4-fluoropiperidin-3-yl)pyrimidin-2-amine] | 31 |  | 1 | < 0.5 | 9 | −2433 | 2.5 |
| F[C@H]1CCNC[C@@H]1Nc1nccc(-c2cnc3cc(OC4CC4)c(C4CC4)nn23)n1 [Compound 12a, 4-(7-cyclopropoxy-6-cyclopropylimidazo[1,2-b]pyridazin-3-yl)-N-((3S,4S)-4-fluoropiperidin-3-yl)pyrimidin-2-amine] | 18 |  | 6 | < 0.5 | 23 | −1770.6140 | 5 |
| COc1cc2ncc(-c3nc(N[C@H]4CNCC[C@@H]4F)ncc3F)n2nc1C(C)(C)O [Compound 45a, 2-(3-(5-fluoro-2-(((3S,4S)-4-fluoropiperidin-3-yl)amino)pyrimidin-4-yl)-7-methoxyimidazo[1,2-b]pyridazin-6-yl)propan-2-ol] | 18 |  | 8 | < 0.5 | 15 | −1158 | 10 |
| CC(C)(O)c1ccc2ncc(-c3nc(N[C@H]4CNCC[C@@H]4F)ncc3F)n2c1 [Compound 46a, 2-(3-(5-fluoro-2-(((3S,4S)-4-fluoropiperidin-3-yl)amino)pyrimidin-4-yl)imidazo[1,2-a]pyridin-6-yl)propan-2-ol] | 6 |  | 2 | < 0.7 | 33 | −774 | 2.5 |
| CC(C)(O)c1ccc2ncc(-c3nc(N[C@@H]4CCCNC4)ncc3F)n2c1 [Compound 48a, (R)-2-(3-(5-fluoro-2-(piperidin-3-ylamino)pyrimidin-4-yl)imidazo[1,2-a]pyridin-6-yl)propan-2-ol] | 10 |  | 5 | 1 | 36 | −759.8 | 2.5 |
| COc1cc2ncc(-c3nc(N[C@H]4CNCC[C@@H]4F)ncc3F)n2nc1C1CC(F)(F)C1 [Compound 49a, 4-(6-(3,3-difluorocyclobutyl)-7-methoxyimidazo[1,2-b]pyridazin-3-yl)-5-fluoro-N-((3S,4S)-4-fluoropiperidin-3-yl)pyrimidin-2-amine] | 2 |  | 0.5 | < 0.5 | 15 | −1767 | 10 |
| COc1cc2ncc(-c3nc(N[C@@H]4CCCNC4)ncc3F)n2nc1C1CC2(CCC2)C1 [Compound 59a, (R)-5-fluoro-4-(7-methoxy-6-(spiro[3.3]heptan-2-yl)imidazo[1,2-b]pyridazin-3-yl)-N-(piperidin-3-yl)pyrimidin-2-amine] | 0.7 |  | 3 | < 0.5 | 7 | −914.4 | 5 |
| COc1cc2ncc(-c3nc(N[C@H]4CNCC[C@@H]4F)ncc3F)n2nc1C1CC2(CCC2)C1 [Compound 60a, 5-fluoro-N-((3S,4S)-4-fluoropiperidin-3-yl)-4-(7-methoxy-6-(spiro[3.3]heptan-2-yl)imidazo[1,2-b]pyridazin-3-yl)pyrimidin-2-amine] | 4 |  | 8 | < 0.5 | 11 | −1548 | 5 |
| COc1cc2ncc(-c3nc(N[C@H]4CNC[C@@H]4F)ncc3F)n2nc1N1CCCS1(=O)=O [Compound 111a, 2-(3-(5-fluoro-2-(((3S,4S)-4-fluoropyrrolidin-3-yl)amino)pyrimidin-4-yl)-7-methoxyimidazo[1,2-b]pyridazin-6-yl)isothiazolidine 1,1-dioxide] | 40 |  | 3 | < 0.5 | 13 |  |  |
| COc1cc2ncc(-c3nc(N[C@H]4CNCC[C@@H]4F)ncc3F)n2nc1N1CCCS1(=O)=O [Compound 112a, 2-(3-(5-fluoro-2-(((3S,4S)-4-fluoropiperidin-3-yl)amino)pyrimidin-4-yl)-7-methoxyimidazo[1,2-b]pyridazin-6-yl)isothiazolidine 1,1-dioxide] | 19 |  | 3 | < 0.5 | 3 |  |  |
